IC50 data for four compounds are collected here from ChEMBL document CHEMBL3108748, “Telomere maintenance as a target for drug discovery” (J Med Chem, 2014).

Assay [1] has as its target T1, Telomerase reverse transcriptase (Homo sapiens, UniProt O14746). The assay is described as follows: Inhibition of human telomerase activity in human Jurkat cells by TRAP assay. It is filed as cell-based.
Assay [2] concerns the target T1, Telomerase reverse transcriptase. Kind of assay: Inhibition of human telomerase activity by TRAP assay.
The target is the same in assay [3]. Kind of assay: Inhibition of human telomerase activity after 8 mins by SYBR Green staining-based TRAP assay.
Assay [4] deals with Telomerase reverse transcriptase (Rattus norvegicus, UniProt Q673L6). Kind of assay: Inhibition of rat telomerase by TRAP assay.
Chain of Telomerase reverse transcriptase (Rattus norvegicus, UniProt Q673L6) (Q673L6 whole entry): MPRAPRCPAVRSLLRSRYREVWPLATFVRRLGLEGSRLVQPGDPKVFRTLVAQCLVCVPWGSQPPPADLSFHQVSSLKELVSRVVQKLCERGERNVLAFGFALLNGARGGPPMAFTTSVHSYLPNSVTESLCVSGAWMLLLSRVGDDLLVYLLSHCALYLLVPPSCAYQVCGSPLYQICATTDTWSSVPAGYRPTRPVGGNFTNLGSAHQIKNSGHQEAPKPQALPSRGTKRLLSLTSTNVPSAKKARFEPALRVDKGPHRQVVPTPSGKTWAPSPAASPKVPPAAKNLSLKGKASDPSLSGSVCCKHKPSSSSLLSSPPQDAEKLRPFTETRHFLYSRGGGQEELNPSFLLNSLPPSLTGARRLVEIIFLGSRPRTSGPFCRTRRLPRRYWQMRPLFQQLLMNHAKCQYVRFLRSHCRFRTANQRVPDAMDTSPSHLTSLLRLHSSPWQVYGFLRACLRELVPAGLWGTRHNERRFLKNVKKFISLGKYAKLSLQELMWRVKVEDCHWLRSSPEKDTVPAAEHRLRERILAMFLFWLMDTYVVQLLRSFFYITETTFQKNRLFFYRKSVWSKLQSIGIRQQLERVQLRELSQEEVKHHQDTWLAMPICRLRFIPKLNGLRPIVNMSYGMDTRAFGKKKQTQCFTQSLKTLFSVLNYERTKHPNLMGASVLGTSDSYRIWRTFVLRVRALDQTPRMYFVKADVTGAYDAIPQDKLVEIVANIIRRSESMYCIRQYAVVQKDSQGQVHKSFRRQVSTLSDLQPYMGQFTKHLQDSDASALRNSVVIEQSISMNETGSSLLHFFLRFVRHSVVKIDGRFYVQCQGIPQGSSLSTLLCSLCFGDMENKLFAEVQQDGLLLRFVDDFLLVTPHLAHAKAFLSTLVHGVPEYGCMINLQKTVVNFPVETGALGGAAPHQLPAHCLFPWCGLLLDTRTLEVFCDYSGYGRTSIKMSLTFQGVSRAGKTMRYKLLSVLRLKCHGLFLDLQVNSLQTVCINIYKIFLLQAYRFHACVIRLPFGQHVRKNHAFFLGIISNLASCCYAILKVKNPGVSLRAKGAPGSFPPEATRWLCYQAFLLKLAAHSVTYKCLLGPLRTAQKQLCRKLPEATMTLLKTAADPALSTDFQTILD

T1 sequence (O14746 whole entry): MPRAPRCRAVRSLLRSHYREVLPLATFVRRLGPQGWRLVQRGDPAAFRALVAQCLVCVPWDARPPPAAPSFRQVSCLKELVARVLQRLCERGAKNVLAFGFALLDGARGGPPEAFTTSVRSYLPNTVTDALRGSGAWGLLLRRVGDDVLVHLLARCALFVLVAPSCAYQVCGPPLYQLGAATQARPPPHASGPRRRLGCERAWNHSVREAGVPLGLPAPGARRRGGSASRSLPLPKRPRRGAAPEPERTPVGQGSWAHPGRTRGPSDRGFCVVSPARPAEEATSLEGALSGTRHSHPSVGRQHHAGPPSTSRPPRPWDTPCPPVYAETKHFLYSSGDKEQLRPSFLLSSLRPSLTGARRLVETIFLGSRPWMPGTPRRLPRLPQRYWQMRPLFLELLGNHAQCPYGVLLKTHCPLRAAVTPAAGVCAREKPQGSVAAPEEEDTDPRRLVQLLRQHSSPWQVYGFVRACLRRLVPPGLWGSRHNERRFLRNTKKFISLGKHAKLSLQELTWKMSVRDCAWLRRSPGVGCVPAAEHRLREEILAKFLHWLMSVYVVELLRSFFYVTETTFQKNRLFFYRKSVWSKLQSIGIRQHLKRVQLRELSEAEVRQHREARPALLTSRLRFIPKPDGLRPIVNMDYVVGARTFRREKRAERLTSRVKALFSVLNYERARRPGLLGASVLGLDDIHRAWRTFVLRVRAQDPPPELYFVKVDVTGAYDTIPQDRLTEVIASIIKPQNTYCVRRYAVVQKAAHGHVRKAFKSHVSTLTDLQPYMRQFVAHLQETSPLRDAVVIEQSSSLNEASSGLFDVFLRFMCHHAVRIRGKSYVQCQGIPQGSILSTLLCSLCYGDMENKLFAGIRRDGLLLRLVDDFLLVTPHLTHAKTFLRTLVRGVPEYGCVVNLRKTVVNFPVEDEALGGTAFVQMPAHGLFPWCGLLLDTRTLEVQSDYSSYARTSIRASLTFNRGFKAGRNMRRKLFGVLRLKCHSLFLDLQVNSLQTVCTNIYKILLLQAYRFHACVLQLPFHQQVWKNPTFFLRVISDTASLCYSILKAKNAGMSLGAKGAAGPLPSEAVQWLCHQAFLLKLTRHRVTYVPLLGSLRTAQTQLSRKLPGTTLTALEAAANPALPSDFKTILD

On to `COc1ccc2c(c1)CC[C@@H]1[C@@H]2CC[C@]2(C)[C@@H](NCCCCCCN3C(=O)C=CC3=O)CC[C@@H]12`, for which, in assay [1], the 50% inhibitory concentration (IC50) was 200 nM.

As to `N=C(N)Nc1nc(-c2cc(Cl)sc2Cl)cs1`, the IC50 in assay [2] stood at 1000 nM. In assay [3], `O=[N+]([O-])/C=C/c1cccc(Oc2cc(Cl)cc(Cl)c2)c1` showed an IC50 of 400 nM. Regarding `O=c1ccsn1-c1cccc(C(F)(F)F)c1`, the midpoint of inhibition in assay [4], the IC50, lay at 1000 nM.

In general, IC50 refers to the point on the concentration scale where inhibition reaches its midpoint.
